In US12195745B2, “Compositions and methods for modulating transduction efficiency of adeno-associated viruses” (Massachusetts Eye and Ear Infirmary, priority 2018, dated 2025):

What was measured:
Huh7 cells [1] = assay: Neuraminidase inhibitor pre-treatment of Huh7 cells followed by AAV transduction (luciferase); format: cell-based, human; conditions: for effect on transduction, short pre-treatment: 1 hour pre-treatment; for effect on AAV4 entry / effect on AAV5 transduction / effect on Anc80 transduction / decrease of rh32.33 transduction: 24 hours pre-treatment, 10,000 VG/cell; for decrease of rh32.33 transduction: CMV.Luciferase.SVPA
Description: All luciferase transduction assays were done by seeding 10,000 cells per well in black-bottom 96 well plates overnight. When indicated, cells were pre-incubated with 200 pfu/cell of WT hAd5 (University of Pennsylvania Vector core) in D10 for two hours, then hAd5-containing medium was removed prior to transduction. Cells were transduced with either AAV at 1×10^4 VG/cell in 50 μL serum-free DMEM (AAVR rescue experiments) for 1 h at 37° C., then D10 was added to a total volume of 200 μL, or 100 μl per well of crude virus prep (chimeric, and point mutant capsid experiments) was added for 1 h at 37° C., removed, then D10 was added. Transduction levels were analyzed by luciferase assay 48 hours post-transduction.
Two days post-transduction, cell culture medium was removed and cells were lysed in 20 μL per well of 1× Reporter Lysis Buffer (Promega, Cat#), then frozen at −80° C. After thaw, ffLuc expression was measured in Relative Light Units/s on a Synergy H1 Hybrid Multi-Mode Microplate reader using 100 μL luciferin buffer [200 mM Tris pH 8, 10 mM MgCl2, 300 μM ATP, 1× Firefly Luciferase signal enhancer (Thermo Cat#16180), and 150 μg/mL D-Luciferin].
Because NEU1 is an enzyme and CTSA, also identified in the entry screen (FIG. 5C), is required for maintaining the catalytically active conformation of NEU1 (D'Azzo et al., 1982, PNAS USA, 79:4535-9; and Vinogradova et al., 1998, Biochem. J. 330(Pt 2):641-50), whether enzymatic activity of NEU1 is required for its function was tested in rh32.33 and AAV4 entry. Two different sialic acid analog neuraminidase inhibitor compounds were used, Zanamivir (von Itzstein et al., 1993, Nature, 363:418-23) and DANA (Meindl et al., 1974, Virology, 58:457-63), to do a dose response on Huh7 cells and assess the effect on entry of different AAVR dependent and AAVR independent serotypes. Two different AAVR-dependent serotypes, AAV5 and Anc80, and two AAVR-independent serotypes, rh32.33 and AAV4, were tested. Importantly, AAV4 and AAV5 were examined because both AAVs use sialic acid as an attachment factor (Kaludov et al., 2001, J. Virol., 75:6884-93; and Walters et at, 2001, J. Biol. Chem., 276:20610-6) yet differ in their AAVR dependence.
Briefly, 10,000 cells per well were plated in 96-well plates 1 day prior to inhibitor treatment. […] When indicated, control or inhibitor treated cells were treated with 50 mU/mL Neuraminidase from Vibrio cholera Type III (Sigma Aldrich, Cat#N7885) in serum-free DMEM, followed by AAV transduction as described.

Huh7 cells [2] = assay: Inhibitor pre-treatment, then Neuraminidase from Vibrio cholera, then AAV transduction; format: cell-based, human; conditions: 2 mM inhibitor 24 h, then 2 h Neuraminidase from Vibrio cholera
Description: Briefly, 10,000 cells per well were plated in 96-well plates 1 day prior to inhibitor treatment. Cells were incubated with the indicated concentration of Zanamivir (Sigma SML0492) or DANA (EMD Millipore 252926) for 24 hours prior to transduction in a total volume of 100 μL D10. When indicated, control or inhibitor treated cells were treated with 50 mU/mL Neuraminidase from Vibrio cholera Type III (Sigma Aldrich, Cat#N7885) in serum-free DMEM, followed by AAV transduction as described.
Because NEU1 and CTSA play a role in cellular glycosylation states, confirmation was desired that the entry defect was not due to an overall alteration in glycosylation at the cell surface, leading to an attachment, defect. To do this, cells were first pre-treated for 24 h with Zanamivir or DANA, followed by treatment with a neuraminidase from Vibrio cholera to remove any sialic acid that may have accumulated at the cell surface due to NEU1 inhibition.
The indicated pre-chilled vector was then added to cells on ice, incubated for 1 hour for the vectors to undergo attachment, unbound vector was washed away using ice-cold PBS, then transduction was allowed to proceed and vector transduction assessed in the different treatment conditions by fold-change relative to untreated control cells via luciferase assay. […]

Structure (SMILES)	effect on transduction, short pre-treatment (Huh7 cells [1])	effect on AAV4 entry (Huh7 cells [1])	effect on AAV5 transduction (Huh7 cells [1])	effect on Anc80 transduction (Huh7 cells [1])	decrease of rh32.33 transduction (Huh7 cells [1])	reversal of rh32.33 entry inhibition after neuraminidase treatment (Huh7 cells [2])
CC(=O)N[C@H]1[C@H]([C@H](O)[C@H](O)CO)OC(C(=O)O)=C[C@@H]1O [DANA]	did not show any decrease in transduction	slightly decreased AAV4 entry	Neither of the AAVR-dependent serotypes, AAV5 or Anc80, showed a decrease in transduction	Neither of the AAVR-dependent serotypes, AAV5 or Anc80, showed a decrease in transduction	roughly ten-fold	a reversal of entry inhibition was not observed
CC(=O)N[C@H]1[C@H]([C@H](O)[C@H](O)CO)OC(C(=O)O)=C[C@@H]1N=C(N)N [Zanamivir]	did not show any decrease in transduction	slightly decreased AAV4 entry	Neither of the AAVR-dependent serotypes, AAV5 or Anc80, showed a decrease in transduction	Neither of the AAVR-dependent serotypes, AAV5 or Anc80, showed a decrease in transduction	roughly ten-fold	a reversal of entry inhibition was not observed
